Tested on: Metabolism protein genes
Assay: DNA chip mRNA expression in yeast, metabolism protein genes (Table 7)
Assay type: cell-based, Saccharomyces cerevisiae S288C
Protocol: Yeast (Saccharomyces cerevisiae S288C (α SUC2mal mel gap2 CUP1)) were incubated at 25° C. on YPD medium (yeast extract 1%, polypepton 2%, glucose 2%). One of toxic chemical substances was added to the cells at logarithmic growth phase, and the cells were further incubated for two hours. Cells were cultured without any chemical substance in the same condition, and were used as control. Concentrations of the chemical substances were defined to inhibit the growth of the yeast but not lead to death.
After completion of the incubation, the culture was centrifuged to collect the cells. To the cells, sodium acetate buffer (50 mM sodium acetate, 10 mM EDTA, 1% SDS) was added, and the mixture was shaken at 65° C. for five minutes, followed by returning to room temperature, and obtaining the supernatant, of which the procedures were repeated two times. To the supernatant, ½ amount of a solution of phenol/chloroform was added, and the mixture was centrifuged to give a supernatant, which was added with an equal amount of chloroform, and the mixture was centrifuged to give a supernatant. To the supernatant, an equal amount of isopropanol containing 0.3 M sodium acetate was added, and the mixture was allowed to stand at room temperature for 30 minutes, after which the mixture was centrifuged to give a sediment of the whole RNAs. Seventy % ethanol was added to the sediment, and the mixture was again centrifuged to give a sediment, which was then dried and dissolved in water. mRNA was isolated from the whole RNAs as followings. In view of the fact that a poly A chain is attached to the 3′ terminus of mRNA, a polynucleotide having a poly T structure which was immobilized on the surface of latex beads was used to trap the mRNA, and then the mRNA was washed and eluted with spine column (Oligotex-dT30<Super>mRNA Purification Kit, Takara). Reverse transcription of the mRNA was conducted with a reverse transcriptase (Super Script II Reverse Transcriptase; catalogue No. 18064-014, GibcoBRL) using fluorescence-labeled nucleotides to give cDNAs that were introduced with Cy3-dUTP or Cy5-dUTP during the reverse transcription.
The labeled cDNAs were dissolved in TE buffer (10mM Tris-HCl/1 mM EDTA, pH8.0), and the solution was dropped on the DNA chip containing the whole genes of yeast (DNA Chip Research Inc. Japan) so that the cDNAs were hybridized on the DNA chip at 65° C. for over 12 hours. The fluoresces intensity of the DNA chip was read with a scanner, and the ratio relative to the fluorescence intensity resulting from the absence of chemical substance was estimated as the following, which is shown in Tables 1 to 9: […]

O=[N+]([O-])c1cc[n+]([O-])c2ccccc12 [(5), 4-nitroquinolin-N-oxide]
2.1: The level of expressed mRNA in the presence of chemical substance/The level of expressed mRNA in the absence of chemical substance (yeast gene YNL231C) | level of expressed mRNA in the presence/in the absence of chemical substance (yeast gene YOL108C)
1.7: level of expressed mRNA in the presence/in the absence of chemical substance (yeast gene YLR044C) | level of expressed mRNA in the presence/in the absence of chemical substance (yeast gene YMR015C) | The level of expressed mRNA in the presence of chemical substance/The level of expressed mRNA in the absence of chemical substance (yeast gene YNL037C) | level of expressed mRNA in the presence/in the absence of chemical substance (yeast gene YOL116W)
1.3: The level of expressed mRNA in the presence of chemical substance/The level of expressed mRNA in the absence of chemical substance (yeast gene YKL152C) | level of expressed mRNA in the presence/in the absence of chemical substance (yeast gene YML022W) | The level of expressed mRNA in the presence of chemical substance/The level of expressed mRNA in the absence of chemical substance (yeast gene YML054C) | The level of expressed mRNA in the presence of chemical substance/The level of expressed mRNA in the absence of chemical substance (yeast gene YNL012W) | The level of expressed mRNA in the presence of chemical substance/The level of expressed mRNA in the absence of chemical substance (yeast gene YNR033W) | The level of expressed mRNA in the presence of chemical substance/The level of expressed mRNA in the absence of chemical substance (yeast gene YOR336W) | The level of expressed mRNA in the presence of chemical substance/The level of expressed mRNA in the absence of chemical substance (yeast gene YPL017C)
2.0: level of expressed mRNA in the presence/in the absence of chemical substance (yeast gene YPR113W)
0.8: The level of expressed mRNA in the presence of chemical substance/The level of expressed mRNA in the absence of chemical substance (yeast gene YKL035W) | level of expressed mRNA in the presence/in the absence of chemical substance (yeast gene YKL148C) | The level of expressed mRNA in the presence of chemical substance/The level of expressed mRNA in the absence of chemical substance (yeast gene YLL058W) | level of expressed mRNA in the presence/in the absence of chemical substance (yeast gene YLR089C) | The level of expressed mRNA in the presence of chemical substance/The level of expressed mRNA in the absence of chemical substance (yeast gene YLR180W) | The level of expressed mRNA in the presence of chemical substance/The level of expressed mRNA in the absence of chemical substance (yeast gene YLR300W) | The level of expressed mRNA in the presence of chemical substance/The level of expressed mRNA in the absence of chemical substance (yeast gene YNL104C) | The level of expressed mRNA in the presence of chemical substance/The level of expressed mRNA in the absence of chemical substance (yeast gene YNL106C) | The level of expressed mRNA in the presence of chemical substance/The level of expressed mRNA in the absence of chemical substance (yeast gene YNR019W) | level of expressed mRNA in the presence/in the absence of chemical substance (yeast gene YOR251C) | The level of expressed mRNA in the presence of chemical substance/The level of expressed mRNA in the absence of chemical substance (yeast gene YPR026W)
1.0: The level of expressed mRNA in the presence of chemical substance/The level of expressed mRNA in the absence of chemical substance (yeast gene YKL091C) | The level of expressed mRNA in the presence of chemical substance/The level of expressed mRNA in the absence of chemical substance (yeast gene YKL215C) | The level of expressed mRNA in the presence of chemical substance/The level of expressed mRNA in the absence of chemical substance (yeast gene YKR039W) | level of expressed mRNA in the presence/in the absence of chemical substance (yeast gene YLR081W) | level of expressed mRNA in the presence/in the absence of chemical substance (yeast gene YOR085W) | level of expressed mRNA in the presence/in the absence of chemical substance (yeast gene YOR176W) | level of expressed mRNA in the presence/in the absence of chemical substance (yeast gene YOR178C) | level of expressed mRNA in the presence/in the absence of chemical substance (yeast gene YPL028W)
1.8: The level of expressed mRNA in the presence of chemical substance/The level of expressed mRNA in the absence of chemical substance (yeast gene YOR130C)
0.7: The level of expressed mRNA in the presence of chemical substance/The level of expressed mRNA in the absence of chemical substance (yeast gene YJR155W) | The level of expressed mRNA in the presence of chemical substance/The level of expressed mRNA in the absence of chemical substance (yeast gene YKL213C) | level of expressed mRNA in the presence/in the absence of chemical substance (yeast gene YLR058C) | level of expressed mRNA in the presence/in the absence of chemical substance (yeast gene YMR323W) | level of expressed mRNA in the presence/in the absence of chemical substance (yeast gene YNL025C) | The level of expressed mRNA in the presence of chemical substance/The level of expressed mRNA in the absence of chemical substance (yeast gene YNL169C) | The level of expressed mRNA in the presence of chemical substance/The level of expressed mRNA in the absence of chemical substance (yeast gene YOL126C) | The level of expressed mRNA in the presence of chemical substance/The level of expressed mRNA in the absence of chemical substance (yeast gene YOR347C)
1.1: The level of expressed mRNA in the presence of chemical substance/The level of expressed mRNA in the absence of chemical substance (yeast gene YMR008C) | The level of expressed mRNA in the presence of chemical substance/The level of expressed mRNA in the absence of chemical substance (yeast gene YMR271C) | The level of expressed mRNA in the presence of chemical substance/The level of expressed mRNA in the absence of chemical substance (yeast gene YNL045W) | level of expressed mRNA in the presence/in the absence of chemical substance (yeast gene YOR002W) | level of expressed mRNA in the presence/in the absence of chemical substance (yeast gene YOR108W) | level of expressed mRNA in the presence/in the absence of chemical substance (yeast gene YOR128C) | level of expressed mRNA in the presence/in the absence of chemical substance (yeast gene YPL148C)
1.2: level of expressed mRNA in the presence/in the absence of chemical substance (yeast gene YMR205C) | The level of expressed mRNA in the presence of chemical substance/The level of expressed mRNA in the absence of chemical substance (yeast gene YNR002C) | The level of expressed mRNA in the presence of chemical substance/The level of expressed mRNA in the absence of chemical substance (yeast gene YOL058W) | The level of expressed mRNA in the presence of chemical substance/The level of expressed mRNA in the absence of chemical substance (yeast gene YOL153C) | level of expressed mRNA in the presence/in the absence of chemical substance (yeast gene YOL156W)
1.6: level of expressed mRNA in the presence/in the absence of chemical substance (yeast gene YKL060C) | level of expressed mRNA in the presence/in the absence of chemical substance (yeast gene YLR006C) | level of expressed mRNA in the presence/in the absence of chemical substance (yeast gene YLR056W) | level of expressed mRNA in the presence/in the absence of chemical substance (yeast gene YLR284C) | level of expressed mRNA in the presence/in the absence of chemical substance (yeast gene YLR354C) | The level of expressed mRNA in the presence of chemical substance/The level of expressed mRNA in the absence of chemical substance (yeast gene YNL331C) | The level of expressed mRNA in the presence of chemical substance/The level of expressed mRNA in the absence of chemical substance (yeast gene YNL332W) | level of expressed mRNA in the presence/in the absence of chemical substance (yeast gene YPL135W)
1.4: The level of expressed mRNA in the presence of chemical substance/The level of expressed mRNA in the absence of chemical substance (yeast gene YKL104C) | The level of expressed mRNA in the presence of chemical substance/The level of expressed mRNA in the absence of chemical substance (yeast gene YLR307W) | level of expressed mRNA in the presence/in the absence of chemical substance (yeast gene YLR372W) | The level of expressed mRNA in the presence of chemical substance/The level of expressed mRNA in the absence of chemical substance (yeast gene YML070W) | The level of expressed mRNA in the presence of chemical substance/The level of expressed mRNA in the absence of chemical substance (yeast gene YMR020W) | The level of expressed mRNA in the presence of chemical substance/The level of expressed mRNA in the absence of chemical substance (yeast gene YNL322C) | The level of expressed mRNA in the presence of chemical substance/The level of expressed mRNA in the absence of chemical substance (yeast gene YNR059W) | level of expressed mRNA in the presence/in the absence of chemical substance (yeast gene YOR142W) | The level of expressed mRNA in the presence of chemical substance/The level of expressed mRNA in the absence of chemical substance (yeast gene YPR167C)
0.4: The level of expressed mRNA in the presence of chemical substance/The level of expressed mRNA in the absence of chemical substance (yeast gene YMR189W) | The level of expressed mRNA in the presence of chemical substance/The level of expressed mRNA in the absence of chemical substance (yeast gene YMR296C)
1.9: level of expressed mRNA in the presence/in the absence of chemical substance (yeast gene YOL086C) | level of expressed mRNA in the presence/in the absence of chemical substance (yeast gene YPL057C)
1.5: level of expressed mRNA in the presence/in the absence of chemical substance (yeast gene YKL157W) | level of expressed mRNA in the presence/in the absence of chemical substance (yeast gene YMR083W) | The level of expressed mRNA in the presence of chemical substance/The level of expressed mRNA in the absence of chemical substance (yeast gene YOR099W) | level of expressed mRNA in the presence/in the absence of chemical substance (yeast gene YOR103C) | level of expressed mRNA in the presence/in the absence of chemical substance (yeast gene YPR165W)
0.6: The level of expressed mRNA in the presence of chemical substance/The level of expressed mRNA in the absence of chemical substance (yeast gene YJR148W) | The level of expressed mRNA in the presence of chemical substance/The level of expressed mRNA in the absence of chemical substance (yeast gene YLR299W) | level of expressed mRNA in the presence/in the absence of chemical substance (yeast gene YLR304C)
0.9: level of expressed mRNA in the presence/in the absence of chemical substance (yeast gene YKR034W) | The level of expressed mRNA in the presence of chemical substance/The level of expressed mRNA in the absence of chemical substance (yeast gene YLR348C) | The level of expressed mRNA in the presence of chemical substance/The level of expressed mRNA in the absence of chemical substance (yeast gene YML100W) | level of expressed mRNA in the presence/in the absence of chemical substance (yeast gene YMR011W) | The level of expressed mRNA in the presence of chemical substance/The level of expressed mRNA in the absence of chemical substance (yeast gene YMR105C) | level of expressed mRNA in the presence/in the absence of chemical substance (yeast gene YMR261C) | level of expressed mRNA in the presence/in the absence of chemical substance (yeast gene YNL192W) | The level of expressed mRNA in the presence of chemical substance/The level of expressed mRNA in the absence of chemical substance (yeast gene YOL165C) | level of expressed mRNA in the presence/in the absence of chemical substance (yeast gene YOR348C) | level of expressed mRNA in the presence/in the absence of chemical substance (yeast gene YPR183W)

— patent US8192962B2, “Processes for detecting toxic substances” (Daikin Industries, Ltd., priority 2001, dated 2012)
